This is an account of results in patent publication US9463190B2, “Methods of treating disease-induced ataxia and non-ataxic imbalance” (UNIVERSITY OF SOUTH FLORIDA, priority 2008, dated 2016).

In data set [1] the test system is cerebellar symptoms of SCA type 3. Description: Case report: person with SCA type 3 taking varenicline (Example 2, first patient). The conditions noted are these: for total SARA score: blinded video rating. Format: in vivo, human. From the text:
The first patient was a person with a 16-year history of imbalance, gait dysfunction, and dysarthria who presented to an academic movement disorders center for management of their symptoms. […] Their medical history included one myocardial infarction 2 years ago, coronary artery disease, hypertension, and hyperlipidemia. […] On examination, the patient's vital signs and physical examination were normal. Their neurologic examination included a Mini-Mental Status Exam (MMSE) of 30/30, mild dysarthria, mild to moderate postural and intention tremor, mild dystonia in their arms, mild akinesia, and moderate dysmetria in all extremities. Fast alternating hand movements were irregular and marked by interruptions, and their heel to shin slide was severely abnormal bilaterally. Their gait was ataxic and […], and they required the constant use of a walker or the support of a cane to ambulate. Their cranial nerves and motor examination were normal, although there was mild decrease in […] sensory examination to light and deep touch in a stocking-glove distribution. There was increased tone and hyperreflexia in their lower extremities. […] After the evaluation, the patient started varenicline 0.5 mg twice daily for smoking cessation. The dose of varenicline was increased to 1 mg twice daily after one week. […] The patient returned to the academic movement disorders center one month after starting varenicline for routine follow-up. […] A videotape of the patient was scored by a blinded movement disorders expert using the SARA (Scale for Assessment and Rating of Ataxia) (1). The total SARA score prior to the patient taking varenicline 1 mg twice daily was 29, while the score one month after starting varenicline was 13.

For data set [2], the system named is ataxia and imbalance in Fragile X-associated Tremor Ataxia syndrome (FXTAS). Briefly: Case report: person with FXTAS taking varenicline (Example 1). Conditions: for SARA score, functional staging for ataxia / SARA score, gait / SARA score, tandem walking: blinded video rating. In kind it is in vivo, human. The protocol:
The patient was a person with a nine-year history of postural and intention tremor of their arms and a four-year history of gait ataxia. Their symptoms became disabling in the past year with frequent falls despite the intermittent use of a walker. […] A timeline of the patient's clinical course is depicted in FIG. 1. […] One week after taking varenicline, they noted that their walking improved and they no longer needed assistance from a walker to ambulate. […] The patient was evaluated by the University of South Florida (USF) movement disorders center seven weeks after starting varenicline. Vital signs and physical examination were normal. Their neurological examination included a Mini Mental State Exam (MMSE) of 26/30, mild dysarthria, mild voice tremor, severe postural and intention tremor of their arms, mild rigidity, and moderate dysmetria in all extremities. They were able to get out of a chair without assistance, and continued to walk six meters five times (30 meters total) without rest or the assistance of a walker. They were able to tandem walk for two to three steps. The rest of their neurological exam, including cranial nerves, reflexes, motor and sensory examination, was within normal limits. The patient received a score of 5 (out of a maximum possible score=63) on a Beck's Depression Scale (BDI) (2). […] Chest X-ray was clear, with no evidence of neoplasia. The patient stopped varenicline seven weeks after starting it. Within 10 days, they reported a slight worsening of the residual ataxia and imbalance. Within three weeks, they again needed a walker for ambulation and began to fall daily. The patient returned to clinic off varenicline. […] They once again needed assistance to walk and was unable to tandem walk even with assistance. The rest of the neurological examination remained unchanged, including the postural and intention tremor. […] At week 11, the patient re-started varenicline one mg twice daily, and again noted improvement in ataxia within one week. Due to vivid dreams, the varenicline dose was decreased to one mg daily at week 12. The patient has taken varenicline for 22 weeks, with a sustained ataxia improvement. A videotape of the patient was scored by a blinded movement disorders expert using the SARA (Scale for Assessment and Rating of Ataxia) (3). The SARA scores on varenicline one mg b.i.d. were “two” for functional staging for ataxia (ataxic symptoms were present and were recognized by patient, but were still mild), “one” for tandem walking (the patient was able to tandem walk in less than perfect manner or the patient could tandem walk greater than four sequential steps but less than eight steps) and “zero” for gait (normal). The SARA scores after the patient had discontinued varenicline for three weeks included a “three” for functional staging for ataxia (ataxic symptoms considered overt and significant), “three” for tandem walking (the patient was considered too poorly coordinated to attempt the task), and “two” for gait (the patient walked with definite ataxia; may have needed intermittent support for walking or the examiner needed to walk with patient for safety sake).

Data set [3] has as its target α4β2 nicotinic acetylcholine receptors (Homo sapiens, UniProt P17787+P43681). Conditions: cited from earlier work.
The test system of data set [4] is cerebellar symptoms of SCA14. Description: Case report: person with SCA14 taking varenicline (Example 2, second patient). In kind it is in vivo, human. Conditions: for total SARA score: blinded rating; for effect of prior medications on cerebellar symptoms: SCA14 patient, before varenicline. Here is the method: The second patient was a person who presented to an academic movement disorders center for neurologic evaluation. […] They had never smoked or used drugs or alcohol and had no allergies. Their medical history was significant for hypertension, which was treated with 325 mg of valsartan (Diovan). Prior medications to treat their cerebellar symptoms included levodopa/carbidopa (Sinemet), lorazepam (Ativan), clonazapem (Klonopin), and zolpidem (Ambien), to no avail.
On evaluation, the patient's vital signs and physical examination were normal. Their neurologic examination included a Mini-Mental Status Examination of 30/30, mild dysarthria, mild postural and intention tremor, and moderate dysmetria in all extremities. Their gait consisted of moderate to severe ataxia, and they required the constant use of a walker or the support of a cane to ambulate. The patient could tandem walk only with support. Increased tone and hyperreflexia were present in their lower extremities, with occasional myoclonus of their right leg.
The patient was started on 0.5 mg of varenicline (Chantix®) once a day, titrating to 1 mg twice daily after 1 week with the understanding that this was being used as an off-label medication. […] The patient returned to the academic movement disorders center 3 weeks after starting varenicline. […] The patient was scored by a blinded movement disorders expert using the SARA. The patient's total SARA score before taking 1 mg of varenicline twice daily was 22, whereas the score 3 weeks after starting varenicline was 8. The patient remained on varenicline for 8 weeks with continued efficacy but discontinued it owing to financial considerations.

The conditions of data set [5]: in vivo; cited from earlier work.
In data set [6] the test system is cerebellar symptoms of spinocerebellar ataxia (SCA) and Fragile-X-Associated Tremor Ataxia Syndrome (FXTAS). Description: Open-label varenicline in ataxic patients; SARA and CGI, blinded video assessment. In kind it is in vivo, human. Here is the method: DESIGN/METHODS: Seven patients from an academic movement disorders center with spinocerebellar ataxia (n=6) and […]=1), were treated with open-label varenicline 1 mg twice daily. Two patients had genetically confirmed SCA 3, 1 patient had genetically confirmed SCA 6, 3 patients had sporadic cerebellar ataxia with no family history, and 1 patient had genetically-confirmed FXTAS. Patients were treated for 4 weeks with varenicline, which was discontinued on day 30. They were assessed at baseline and after 4 weeks using the Scale for the Assessment and Rating of Ataxia (SARA) (Schmitz-Hubsch et al, 2006) and the Clinical Global Impression (CGI) scale. Ataxia experts blindly assessed videotapes of the patients. […] In the remaining 5 patients, there was a mean improvement of 2.4 points in gait scores and of 5 points for the total SARA scores with varenicline use.

The target of data set [7] is α7 nicotinic acetylcholine receptors (Homo sapiens, UniProt P36544). The conditions noted are these: cited from earlier work.
α7 nicotinic acetylcholine receptors, sequence (P36544 23-502): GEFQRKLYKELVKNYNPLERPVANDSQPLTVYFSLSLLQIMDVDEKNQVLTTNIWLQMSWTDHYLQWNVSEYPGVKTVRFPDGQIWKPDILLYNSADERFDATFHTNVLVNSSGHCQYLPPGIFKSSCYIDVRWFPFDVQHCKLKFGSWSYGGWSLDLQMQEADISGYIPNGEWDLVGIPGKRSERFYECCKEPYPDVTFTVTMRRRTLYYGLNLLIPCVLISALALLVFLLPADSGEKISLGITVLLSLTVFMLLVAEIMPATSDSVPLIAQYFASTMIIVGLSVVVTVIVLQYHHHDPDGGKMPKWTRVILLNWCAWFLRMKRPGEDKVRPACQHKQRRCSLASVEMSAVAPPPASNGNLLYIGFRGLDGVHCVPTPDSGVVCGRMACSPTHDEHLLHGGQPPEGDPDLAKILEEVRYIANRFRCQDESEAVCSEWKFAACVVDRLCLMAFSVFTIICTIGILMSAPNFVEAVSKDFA
The subject of the next data set is ataxia and imbalance. Conditions: case series and small controlled trials; cited from earlier work.
Setting [8] is: one month after starting varenicline.
[9] abbreviates: twenty-one days after first taking varenicline.
The mark [10] stands for this setting: varenicline discontinued for three weeks.
Where [11] appears, read: varenicline stopped after seven weeks.
Where [12] appears, read: 3 weeks after starting varenicline.
[13] abbreviates: of 5 remaining patients, 1 mg twice daily, 4 weeks.

α4β2 nicotinic acetylcholine receptors, sequence (P43681 29-627 limits assumed): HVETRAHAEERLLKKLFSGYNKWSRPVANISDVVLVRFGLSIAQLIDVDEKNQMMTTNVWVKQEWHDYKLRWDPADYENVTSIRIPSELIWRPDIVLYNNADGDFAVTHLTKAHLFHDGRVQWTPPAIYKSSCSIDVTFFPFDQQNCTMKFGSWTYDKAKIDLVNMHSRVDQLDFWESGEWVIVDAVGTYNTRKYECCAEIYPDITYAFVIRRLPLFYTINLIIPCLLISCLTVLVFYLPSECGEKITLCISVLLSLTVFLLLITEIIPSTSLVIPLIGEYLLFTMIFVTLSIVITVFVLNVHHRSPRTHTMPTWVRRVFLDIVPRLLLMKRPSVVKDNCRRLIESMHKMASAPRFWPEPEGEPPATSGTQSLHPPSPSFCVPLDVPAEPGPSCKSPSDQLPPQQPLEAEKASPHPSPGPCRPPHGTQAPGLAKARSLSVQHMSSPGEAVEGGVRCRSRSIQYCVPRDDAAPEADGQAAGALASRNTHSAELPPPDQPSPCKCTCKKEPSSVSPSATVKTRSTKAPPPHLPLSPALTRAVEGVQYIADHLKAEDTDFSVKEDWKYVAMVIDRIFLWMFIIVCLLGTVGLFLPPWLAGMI
α4β2 nicotinic acetylcholine receptors, sequence (P17787 26-502): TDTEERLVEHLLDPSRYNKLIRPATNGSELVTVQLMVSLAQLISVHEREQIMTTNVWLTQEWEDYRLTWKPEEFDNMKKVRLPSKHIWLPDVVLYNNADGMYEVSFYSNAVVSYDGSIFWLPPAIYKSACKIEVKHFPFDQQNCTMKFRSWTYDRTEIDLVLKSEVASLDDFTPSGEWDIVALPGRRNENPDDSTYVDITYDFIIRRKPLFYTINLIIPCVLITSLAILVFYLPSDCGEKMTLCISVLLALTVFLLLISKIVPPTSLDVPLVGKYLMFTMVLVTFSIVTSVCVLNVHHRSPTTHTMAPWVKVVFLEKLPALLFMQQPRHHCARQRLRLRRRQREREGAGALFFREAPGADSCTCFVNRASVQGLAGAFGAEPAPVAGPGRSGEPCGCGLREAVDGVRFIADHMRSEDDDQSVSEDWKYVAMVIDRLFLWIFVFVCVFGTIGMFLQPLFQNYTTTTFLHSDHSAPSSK

As to `c1cnc2cc3c(cc2n1)[C@@H]1CNC[C@H]3C1` [varenicline, 7,8,9,10-tetrahydro-6,10-methano-6H-pyrazino (2,3-h)(3) benzazepine], the “time to reported improvement in depth perception and easier, more stable walking” value in data set [1] (0.5 mg twice daily, 1 mg twice daily after one week) is on record as “Ten”. Moreover, in data set [1] (setting [8]), the “gait dysfunction and akinesia” value is “improved markedly”; the “limb dysmetria, fast alternating movements, finger to nose and heel-shin slide” value is on record as “markedly improved”; the “total SARA score” value came to 13. The “total SARA score” value in data set [1] (prior to taking varenicline 1 mg twice daily) was found to be 29. Further, in data set [1] (setting [9]), the balance result is “markedly improved” and the “distance walked using only a cane rather than a walker” value is on record as 3 blocks. Further, the smoking cessation result in data set [1] (while taking varenicline) was “did not stop smoking cigarettes”. Further, in data set [2] (FXTAS patient), the “ataxia and imbalance after starting varenicline” value is on record as “greatly improved”; the “duration of sustained response after open-label resumption” value is on record as “five”. Further, in data set [2] (after discontinuation), the “BDI score off varenicline” value is listed as “had not changed” and the “neurological examination off varenicline” value is reported as “returned to the pre-varenicline state”. Besides, the “duration of varenicline use with sustained ataxia improvement” value in data set [2] (dose decreased to one mg daily at week 12) is listed as 22 weeks. In data set [2] (on varenicline one mg b.i.d.), the “SARA score, functional staging for ataxia” value was “two”; the “SARA score, gait” value is “zero”; the “SARA score, tandem walking” value is recorded as “one”. Also, in data set [2] (one mg twice daily), the “onset of vivid dreaming after starting” value was “two”; the side effect entry was “vivid dreaming”; the smoking cessation entry is “helped them quit smoking in a few days”; the “time until walking improved and walker no longer needed” value is “One”. Further, in data set [2] (one mg twice daily, one week), the balance entry was “marked improvement”. In addition, the “Beck's Depression Scale (BDI) score” value in data set [2] (seven weeks after starting varenicline, maximum possible score 63) stood at 5. In addition, the “distance walked without rest or assistance of a walker” value in data set [2] (seven weeks after starting varenicline, six meters five times) amounted to 30 meters. Besides, in data set [2] (setting [10]), the “SARA score, functional staging for ataxia” value was “three”; the “SARA score, gait” value was “two”; the “SARA score, tandem walking” value is “three”. In data set [2] (setting [11]), the “time to slight worsening of residual ataxia and imbalance after stopping” value is ≤ 10 days; the “time until walker again needed and daily falls after stopping” value is “three”. The “type of activity at α4β2 nicotinic acetylcholine receptors” value in data set [3] was “highly selective partial agonist”. Moreover, in data set [4] (0.5 mg once a day, titrating to 1 mg twice daily after 1 week), the “duration of nausea after taking the medication” value amounted to 7 days. Moreover, in data set [4] (setting [12]), the “speech, dysmetria, finger-to-nose and heel-to-shin maneuvers” value is listed as “markedly improved”; the “total SARA score” value was 8. Also, the gait dysfunction entry in data set [4] (3 weeks after starting varenicline, could walk without assistance) is “improved markedly”. Besides, in data set [4] (4 weeks after discontinuing varenicline), the “neurologic examination after discontinuation” value is given as “returned to prevarenicline status”. Moreover, the “time to reported marked improvements in walking, coordination, speech and balance” value in data set [4] (after starting varenicline) was 8 days. The “total SARA score” value in data set [4] (before taking 1 mg of varenicline twice daily) came to 22. For the same molecule, the “duration on varenicline with continued efficacy” value in data set [4] (discontinued owing to financial considerations) came out at 8 weeks. In data set [5], the adverse effects entry is “nausea, sleep disturbance, constipation, flatulence, and vomiting”; the “potential risks associated with use” value is “suicidal behavior, depressed mood, and agitation”. For the same molecule, the “mean improvement in total SARA scores” value in data set [6] (5 remaining patients, varenicline 1 mg twice daily, 4 weeks vs baseline) amounted to 5 points. For the same molecule, the “mean improvement in gait scores” value in data set [6] (5 remaining patients, varenicline 1 mg twice daily, 4 weeks vs baseline, SARA) was found to be 2.4 points. For the same molecule, the “effect on cerebellar symptoms (conclusion)” value in data set [6] (blinded video analysis of ataxic patients) is listed as “effectively treat cerebellar symptoms”. In data set [6] (setting [13]), the “patients with marked improvement in gait as measured by the CGI” value was “Three” and the “patients with moderate improvement in gait as measured by the CGI” value was 2 patients. The “reason for discontinuation of varenicline” value in data set [6] (two of seven patients (one SCA 6, one sporadic ataxia)) is “flu-like symptoms and increased tremor”. Besides, the “reduction of intake of cigarettes” value in data set [6] (two smokers with marked improvement in gait, while taking varenicline) is 50%. The “type of activity at α7 nicotinic acetylcholine receptors” value in data set [7] is recorded as “full agonist”.
Consider `O=C1CN=C(c2ccccc2Cl)c2cc([N+](=O)[O-])ccc2N1` [clonazapem], for which the “effect of prior medications on cerebellar symptoms” value (“effect of prior medications” for short) in data set [4] was “to no avail”.
As to `CNCCC(Oc1ccc(C(F)(F)F)cc1)c1ccccc1` (stereo not drawn) [fluoxetine], the “efficacy in ataxia and imbalance” value in the data set with ataxia and imbalance was “either conflicting results or limited efficacy”.
As for `O=C1Nc2ccc(Cl)cc2C(c2ccccc2Cl)=NC1O` (stereo not drawn) [lorazepam], in data set [4], the “effect of prior medications” value is reported as “to no avail”.
`O=C1CC2(CCCC2)CC(=O)N1CCCCN1CCN(c2ncccn2)CC1` [buspirone]: the “efficacy in ataxia and imbalance” value with ataxia and imbalance is “either conflicting results or limited efficacy”.
Consider `Cc1ccc(-c2nc3ccc(C)cn3c2CC(=O)N(C)C)cc1` [zolpidem], for which the “effect of prior medications” value in data set [4] is given as “to no avail”. For the same molecule, in the data set on ataxia and imbalance, the “efficacy in ataxia and imbalance” value is “either conflicting results or limited efficacy”.
Consider `Nc1nnc(-c2cccc(Cl)c2Cl)c(N)n1` [lamotrigine], for which the “efficacy in ataxia and imbalance” value in the data set on ataxia and imbalance is given as “either conflicting results or limited efficacy”.
